Read-outs that look alike come from different tables or passages of the source.
Test system: C57BL/6N mice
Settings: TPHP-L group, liver
[1] = adduct [M+Na]+, first of two TG 52:3 lines
[2] = adduct [M+Na]+, second of two TG 52:3 lines

O=P(Oc1ccccc1)(Oc1ccccc1)Oc1ccccc1 [TPHP, triphenyl phosphate]
Z-score of CAR 6:0 (adduct [M+H]+): 0.06
Z-score of CAR 10:0 (adduct [M+H]+): 0.42
Z-score of CAR 12:0 (adduct [M+H]+): 0.80
Z-score of CAR 16:2 (adduct [M+H]+): -0.06
Z-score of CAR 18:2 (adduct [M+H]+): -0.03
Z-score of CAR 18:4 (adduct [M+H]+): 0.78
Z-score of CAR 20:4 (adduct [M+H]+): 0.82
Z-score of NAE 14:0 (adduct [M+H]+): -0.48
Z-score of NAE 20:5 (adduct [M+H]+): 1.00
Z-score of PC 40:6 (adduct [M+H]+): -0.17
Z-score of PS 36:4 (adduct [M+H]+): 0.68
Z-score of SM 27:5;O2 (adduct [M+H]+): 0.55
Z-score of SM 28:3;O3 (adduct [M+H]+): 0.44
Z-score of SM 31:3;O3 (adduct [M+H]+): -0.11
Z-score of SM 41:2;O2 (adduct [M+H]+): 0.71
average intensity of CAR 6:0 (adduct [M+H]+): 2396721
average intensity of CAR 10:0 (adduct [M+H]+): 1504841
average intensity of CAR 12:0 (adduct [M+H]+): 2823213
average intensity of CAR 16:2 (adduct [M+H]+): 1645671
average intensity of CAR 18:2 (adduct [M+H]+): 11661319
average intensity of CAR 18:4 (adduct [M+H]+): 10920113
average intensity of CAR 20:4 (adduct [M+H]+): 36994205
average intensity of NAE 14:0 (adduct [M+H]+): 681808
average intensity of NAE 20:5 (adduct [M+H]+): 53457329
average intensity of PC 40:6 (adduct [M+H]+): 25730542
average intensity of PS 36:4 (adduct [M+H]+): 1577436
average intensity of SM 27:5;O2 (adduct [M+H]+): 18375860
average intensity of SM 28:3;O3 (adduct [M+H]+): 1750893
average intensity of SM 31:3;O3 (adduct [M+H]+): 1688236
average intensity of SM 41:2;O2 (adduct [M+H]+): 9894007
Z-score of BMP 25:4 (adduct [M+NH4]+): -0.15
Z-score of BMP 30:5 (adduct [M+NH4]+): -0.42
Z-score of BMP 38:4 (adduct [M+NH4]+): -0.33
Z-score of PG 21:2 (adduct [M+NH4]+): -0.09
Z-score of PI 39:10 (adduct [M+NH4]+): -0.15
Z-score of TG 48:11 (adduct [M+NH4]+): -0.30
Z-score of TG 55:4 (adduct [M+NH4]+): -0.04
average intensity of BMP 25:4 (adduct [M+NH4]+): 28243710
average intensity of BMP 30:5 (adduct [M+NH4]+): 997136
average intensity of BMP 38:4 (adduct [M+NH4]+): 9007436
average intensity of PG 21:2 (adduct [M+NH4]+): 4648685
average intensity of PI 39:10 (adduct [M+NH4]+): 2117103
average intensity of TG 48:11 (adduct [M+NH4]+): 18422444
average intensity of TG 55:4 (adduct [M+NH4]+): 5767515
Z-score of Cer 42:1;O2 (adduct [M+Na]+): -0.14
Z-score of Cer 64:6;O2 (adduct [M+Na]+): 0.49
Z-score of DG 19:1 (adduct [M+Na]+): -0.58
Z-score of DG 26:5 (adduct [M+Na]+): -0.57
Z-score of DG 26:6 (adduct [M+Na]+): -0.39
Z-score of PC 29:5 (adduct [M+Na]+): -0.26
Z-score of PC 38:6 (adduct [M+Na]+): -0.37
Z-score of PC 42:9 (adduct [M+Na]+): -0.33
Z-score of PS 40:7 (adduct [M+Na]+): 0.24
Z-score of TG 52:2 (adduct [M+Na]+): 0.37
Z-score of TG 52:4 (adduct [M+Na]+): 0.20
average intensity of Cer 42:1;O2 (adduct [M+Na]+): 2208919
average intensity of Cer 64:6;O2 (adduct [M+Na]+): 16081083
average intensity of DG 19:1 (adduct [M+Na]+): 5508
average intensity of DG 26:5 (adduct [M+Na]+): 1202226
average intensity of DG 26:6 (adduct [M+Na]+): 565410
average intensity of PC 29:5 (adduct [M+Na]+): 8118187
average intensity of PC 38:6 (adduct [M+Na]+): 13132954
average intensity of PC 42:9 (adduct [M+Na]+): 1167997
average intensity of PS 40:7 (adduct [M+Na]+): 3607887
average intensity of TG 52:2 (adduct [M+Na]+): 9167552
average intensity of TG 52:4 (adduct [M+Na]+): 2497450
Z-score of TG 52:3 [1]: 0.19
average intensity of TG 52:3 [1]: 1036928
Z-score of TG 52:3 [2]: 0.18
average intensity of TG 52:3 [2]: 8512501
Z-score of Cer 40:1;O2 (adduct [M-H]-): -0.23
Z-score of Cer 41:1;3O(2OH) (adduct [M-H]-): -0.38
Z-score of Cer 42:1;3O(2OH) (adduct [M-H]-): -0.39
Z-score of Cer 43:1;3O(2OH) (adduct [M-H]-): -0.38
Z-score of FA 10:1 (adduct [M-H]-): -0.53
Z-score of FA 14:2 (adduct [M-H]-): 0.22
Z-score of FA 16:2;O (adduct [M-H]-): 0.94
Z-score of FA 19:2;O2 (adduct [M-H]-): 0.68
Z-score of PG 34:2 (adduct [M-H]-): -0.56
Z-score of PG 44:12 (adduct [M-H]-): -0.57
Z-score of PI 36:3 (adduct [M-H]-): -0.53
Z-score of PI 38:4 (adduct [M-H]-): 0.83
average intensity of Cer 40:1;O2 (adduct [M-H]-): 383914
average intensity of Cer 41:1;3O(2OH) (adduct [M-H]-): 1471085
average intensity of Cer 42:1;3O(2OH) (adduct [M-H]-): 280519
average intensity of Cer 43:1;3O(2OH) (adduct [M-H]-): 206714
average intensity of FA 10:1 (adduct [M-H]-): 231265
average intensity of FA 14:2 (adduct [M-H]-): 1600712
average intensity of FA 16:2;O (adduct [M-H]-): 1172357
average intensity of FA 19:2;O2 (adduct [M-H]-): 7389373
average intensity of PG 34:2 (adduct [M-H]-): 228532
average intensity of PG 44:12 (adduct [M-H]-): 36906
average intensity of PI 36:3 (adduct [M-H]-): 498699
average intensity of PI 38:4 (adduct [M-H]-): 49874871

Reference: publication PMC12010937, “Evaluation of FXR Activity in Pollutants Identified in Sewage Sludge and Subsequent in Vitro and in Vivo Characterization of Metabolic Effects of Triphenyl Phosphate” (Environmental Health Perspectives, 2025)
